{"source": "paper PMC10348910", "about": "“Epigenetic reprogramming of cell cycle genes by ACK1 promotes breast cancer resistance to CDK4/6 inhibitor” (Oncogene, 2023)", "key": {"[1]": {"test_system": "MDA-MB-468 xenografts", "assay": "MDA-MB-468 xenograft in mammary fat pad", "format": "in vivo, female SCID mice", "protocol": "To validate these findings in breast tumors, MDA-MB-468 cells were injected in female SCID mice. Once palpable tumors were formed (5 weeks), mice were treated with vehicle (6% captisol), palbociclib (80 mg/Kg of body weight), (R)-9b (36 mg/Kg of body weight) by oral route, or (R)-9b (24 mg/Kg of body weight) by subcutaneous injection, five times a week.\nFig. 7 ACK1 inhibitor overcomes palbociclib-resistant breast cancer growth and metastasis. A 3 × 10^6 MDA-MB-468 cells were injected in the 4th inguinal mammary fat pad of female SCID mice. Once the tumors were palpable, the mice were treated with either vehicle (Captisol; n = 7), Palbociclib at 80 mg/kg (n = 6), or (R)-9b at 36 mg/Kg (n = 6) orally. In addition, mice were injected with (R)-9b at 24 mg/Kg (n = 7) subcutaneously. Mice were treated five times a week, for 22 days. B, C The tumors were harvested and photographed, and the weights were recorded. D Vehicle or (R)-9b treated breast cancer cells were subjected to ChIP using pY88-H4 antibody, followed by qPCR for CXCR4 gene. E CXCR4 mRNA transcript levels in vehicle or (R)-9b treated MDA-MB-231 cells. 18S rRNA was used as housekeeping gene. F MDA-MB-231 cells were transfected with ACK1 or scrambled siRNA, followed by qRT-PCR to determine CXCR4 mRNA transcript levels. G Representative lung metastatic deposits of MDA-MB-231 cells injected via the tail veins in female SCID mice, treated with either vehicle or 24 mg/Kg (R)-9b orally. H Graphical quantitation of lung metastatic deposit. I and J 5 × 10^5 luciferase expressing 4T1 cells were injected into 4th inguinal mammary fat pad of female BALB/c mice. Once the tumors were palpable, mice were treated with either vehicle or (R)-9b at 24 mg/Kg (n = 3, each) subcutaneously for 2 weeks, five times a week. The metastases were assessed using IVIS. Data are represented as the mean ± SEM. *p < 0.05; **p < 0.01; ***p < 0.001. For (A, C–F, I), p values were calculated using unpaired two-tailed Student’s t test.\nAll animal experiments were performed using the standards for humane care in accordance with the NIH Guide for the Care and Use of Laboratory Animals. Mice were obtained from Charles River Laboratories and experiments were performed according to IACUC protocols (IACUC # 20180259) approved in writing by Washington University in St. Louis Department of Comparative Medicine (DCM). 1.5 × 10^6 Cal-148 or MCF7, or 3 × 10^6 MDA-MB-468 cells were suspended in 200 µl of PBS with 50% matrigel (BD Biosciences) and were implanted subcutaneously into the mammary fat pad (between fourth and fifth inguinal) of female SCID C.B17 mice (n = 8 per group). Once the tumors were palpable (about 4–5 weeks), mice were randomly chosen for subcutaneous injection (Cal-148 and MCF7; 24 mg/Kg body weight) or given oral gavage with (R)-9b (MCF7; 36 mg/Kg body weight) resuspended in 6% Captisol (or 6% Captisol in PBS as vehicle), five times a week, for 4–5 weeks. Tumor volumes were measured twice a week using calipers. At the end of the study, all mice were humanely euthanized, tumors extracted and weighed."}, "[2]": {"test_system": "pY88-H4 marks in CXCR4 promoter region", "assay": "ChIP-qPCR with pY88-H4 antibody for CXCR4 gene", "format": "cell-based", "settings": "breast cancer cells", "protocol": "Fig. 7 ACK1 inhibitor overcomes palbociclib-resistant breast cancer growth and metastasis. A 3 × 10^6 MDA-MB-468 cells were injected in the 4th inguinal mammary fat pad of female SCID mice. Once the tumors were palpable, the mice were treated with either vehicle (Captisol; n = 7), Palbociclib at 80 mg/kg (n = 6), or (R)-9b at 36 mg/Kg (n = 6) orally. In addition, mice were injected with (R)-9b at 24 mg/Kg (n = 7) subcutaneously. Mice were treated five times a week, for 22 days. B, C The tumors were harvested and photographed, and the weights were recorded. D Vehicle or (R)-9b treated breast cancer cells were subjected to ChIP using pY88-H4 antibody, followed by qPCR for CXCR4 gene. […] H Graphical quantitation of lung metastatic deposit. […] The metastases were assessed using IVIS. […] For (A, C–F, I), p values were calculated using unpaired two-tailed Student’s t test.\nCell pellets were resuspended in RLB buffer and sonicated and the soluble chromatin was incubated with antibodies and Protein-G/A magnetic beads. […] The size and quality of the library was evaluated using the Agilent BioAnalyzer (Agilent Technologies, Inc., Santa Clara, CA), and the library was quantitated with the Kapa Library Quantification Kit. Each enriched DNA library was then sequenced on an Illumina NextSeq 500 sequencer to generate 40–50 million 75-base paired-end reads (Illumina, Inc., San Diego, CA). […]"}, "[3]": {"target": "ACK1 (Homo sapiens, UniProt Q07912)", "sequence (Q07912 whole entry)": "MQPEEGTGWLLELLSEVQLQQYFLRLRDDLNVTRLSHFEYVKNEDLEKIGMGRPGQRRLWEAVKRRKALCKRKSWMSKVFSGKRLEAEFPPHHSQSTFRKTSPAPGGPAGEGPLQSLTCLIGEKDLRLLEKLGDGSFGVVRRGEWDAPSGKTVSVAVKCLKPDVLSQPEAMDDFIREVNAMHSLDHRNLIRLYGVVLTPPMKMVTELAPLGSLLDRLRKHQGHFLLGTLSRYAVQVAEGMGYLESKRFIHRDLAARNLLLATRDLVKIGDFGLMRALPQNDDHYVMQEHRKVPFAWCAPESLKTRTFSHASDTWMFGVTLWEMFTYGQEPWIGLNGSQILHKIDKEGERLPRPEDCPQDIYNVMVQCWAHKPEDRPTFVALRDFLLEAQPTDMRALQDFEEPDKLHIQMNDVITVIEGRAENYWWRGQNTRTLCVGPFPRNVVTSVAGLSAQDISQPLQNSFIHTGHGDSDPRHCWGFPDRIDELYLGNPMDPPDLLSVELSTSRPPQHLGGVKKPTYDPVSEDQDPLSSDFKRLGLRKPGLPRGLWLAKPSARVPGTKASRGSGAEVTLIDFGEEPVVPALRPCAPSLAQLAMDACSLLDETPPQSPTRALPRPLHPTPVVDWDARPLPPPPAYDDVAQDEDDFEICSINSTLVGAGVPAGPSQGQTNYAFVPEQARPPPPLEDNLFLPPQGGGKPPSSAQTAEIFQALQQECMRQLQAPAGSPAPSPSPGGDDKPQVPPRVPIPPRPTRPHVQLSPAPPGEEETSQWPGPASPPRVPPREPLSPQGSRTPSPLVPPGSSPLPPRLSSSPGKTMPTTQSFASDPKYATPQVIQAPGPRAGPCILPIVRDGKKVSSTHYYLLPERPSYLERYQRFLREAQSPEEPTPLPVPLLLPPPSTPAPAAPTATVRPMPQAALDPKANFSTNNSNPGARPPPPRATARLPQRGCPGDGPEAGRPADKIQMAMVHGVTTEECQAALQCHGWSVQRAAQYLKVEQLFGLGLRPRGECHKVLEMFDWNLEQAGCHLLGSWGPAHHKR", "assay": "biochemical", "settings": "1 uM ATP; read-out: Compound IC50 (M) ACK1"}, "[4]": {"test_system": "luciferase expressing 4T1 cells", "assay": "orthotopic lung metastasis study", "format": "in vivo, female Balb/c mice", "settings": "24 mg/kg subcutaneously, 2 weeks", "protocol": "In addition, we performed fluorescent imaging on mice orthotopically injected with luciferase expressing 4T1 cells (5 × 10^5). Two weeks after inoculation into the mammary fat pads, mice were subcutaneously injected with vehicle (6% Captisol) or (R)-9b (24 mg/kg) five times a week for 2 weeks. Mice were then administered an intraperitoneal injection of D-luciferin, lungs were excised and imaged for metastases.\nFemale Balb/c mice were orthotopically injected with luciferase expressing 4T1 cells (5 × 10^5). Two weeks after inoculation into the 5th mammary fat pads, mice were subcutaneously injected with vehicle (6% captisol) or (R)-9b (24 mg/Kg) five times a week, for 2 weeks. Mice were then intraperitoneally injected with D-luciferin, humanely euthanized, lungs were excised and assessed for metastases using both fluorescent in vivo imaging system and H&E staining."}}, "data": [{"smiles": "CN1CCN(c2ccc(Nc3ncc(Cl)c(NC[C@H]4CCCO4)n3)cc2)CC1", "note": "[(R)-9b]", "values": [{"measurement": "tumor weights", "setting": "[1]; (R)-9b 36 mg/Kg oral or 24 mg/Kg subcutaneous, end of experiment", "value": "significant reduction in tumor weights"}, {"measurement": "xenograft tumor growth", "setting": "[1]; palbociclib 80 mg/Kg oral, (R)-9b 36 mg/Kg oral or 24 mg/Kg subcutaneous, five times a week, 3 weeks", "value": "compromised tumors growth"}, {"measurement": "weights of the mice", "setting": "[1]; palbociclib 80 mg/Kg, (R)-9b 36 mg/Kg oral or 24 mg/Kg subcutaneous", "value": "did not exhibit significant loss of weight"}, {"measurement": "histology (H&E) of heart, spleen, kidneys and livers", "setting": "[1]; palbociclib 80 mg/Kg, (R)-9b oral and subcutaneous", "value": "did not reveal histological abnormalities"}, {"measurement": "pY88-H4 epigenetic marks in CXCR4 promoter region", "setting": "[2]", "value": "erased these marks"}, {"measurement": "IC50", "setting": "[3]", "value": "1.25e-08", "unit": "M"}, {"measurement": "lung tumor nodules (H&E)", "setting": "[4]", "value": "absent"}, {"measurement": "lung luminescence (photons/sec)", "setting": "[4]; five times a week", "value": "significant decrease"}]}]}
